This assay in a line: pharmacological profile from the in vivo screening tests and in vitro receptor binding (tranquilizing profile). The settings on record: potential indicated by test profile. The text has this:
The following in vivo screening tests were utilized as the basis to determine the tranquilizing profile and potential side-effect liabilities of the instant compounds.
As further indication of the psychotropic activity and specificity of the instant compounds, state of the art in vitro central nervous system receptor binding methodology can be employed. […] Inhibition of radiolabeled ligand binding to such specific high affinity sites is considered a measure of a compound's ability to affect corresponding central nervous system functions or cause side effects in vivo. This principle is employed in the following in vitro assay which is given by way of example.
Another test predictive of side effects measures protection against norepinephrine lethality. This procedure essentially relates to alpha-block and the unwanted side effects which accompany it, such as sedation and blood pressure lowering.
For `O=C1CC2(CCc3ccccc3C2)C(=O)N1CCCCN1CCN(c2ncccn2)CC1` (stereo not drawn) [Example 16, 1'-[4-[4-(2-Pyrimidinyl)-1-piperazinyl]butyl]spiro[1,2,3,4-tetrahydronaphthalene-2,3'-pyrrolidine-2',5'-dione]], the pharmacological profile result is reported as “selective anxiolytic potential”. With “3-(4-Fluorophenyl)-3-methyl-1-[4-[4-(2-pyrimidinyl)-1-piperazinyl]butyl]-2,5-pyrrolidinedione [Example 7]” the entry was “potential non-dopaminergic antipsychotic activity”; with `O=C1CC(c2ccccc2)(c2ccccc2)C(=O)N1CCCCN1CCN(c2ncccn2)CC1` [Example 9, 3,3-Diphenyl-1-[4-[4-(2-pyrimidinyl)-1-piperazinyl]butyl]-2,5-pyrrolidinedione], “selective anxiolytic potential”.

The values are drawn from patent publication US4524206A, “1-Heteroaryl-4-(2,5-pyrrolidinedion-1-yl)alkyl)piperazine derivatives” (Mead Johnson & Company, priority 1983, dated 1985).
